In patent publication US10323038B2, “Pyrazole compounds and methods of making and using same” (ABIDE THERAPEUTICS, INC., priority 2015, dated 2019):
pIC50: −log10 of the molar value.

Legend:
[1] = target: FAAH (Mus musculus (Mouse), UniProt O08914); test: In vitro competitive activity-based protein profiling, FAAH (mouse); type: biochemical; details: for inhibition at 1 µM: read-out: FAAH % inh. 1 μM (mouse)
Procedure, shortened: (§1)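 Residual MAGL and FAAH activity came from in-gel fluorescence after competition between inhibitor (30 min preincubation, 37° C) and the activity-based probe FP-Rh or HT-01 (30 min, 37° C) in mouse or human tissue or cell proteomes.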

[2] = target: MAGL (Mus musculus (Mouse), UniProt O35678); test: In vitro competitive activity-based protein profiling, MAGL (mouse); type: biochemical; details: for inhibition at 1 µM: read-out: MAGL % inh. 1 μM (mouse)
MAGL, sequence (O35678 whole entry): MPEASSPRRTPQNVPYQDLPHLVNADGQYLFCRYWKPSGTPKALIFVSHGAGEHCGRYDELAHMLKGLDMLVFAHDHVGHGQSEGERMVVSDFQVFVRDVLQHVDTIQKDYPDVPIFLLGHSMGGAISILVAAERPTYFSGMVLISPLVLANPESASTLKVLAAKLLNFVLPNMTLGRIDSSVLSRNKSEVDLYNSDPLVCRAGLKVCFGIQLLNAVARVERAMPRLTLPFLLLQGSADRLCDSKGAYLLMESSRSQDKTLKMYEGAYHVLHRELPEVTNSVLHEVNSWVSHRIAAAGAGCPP
Procedure, shortened: as §1

FAAH, sequence (O08914 whole entry): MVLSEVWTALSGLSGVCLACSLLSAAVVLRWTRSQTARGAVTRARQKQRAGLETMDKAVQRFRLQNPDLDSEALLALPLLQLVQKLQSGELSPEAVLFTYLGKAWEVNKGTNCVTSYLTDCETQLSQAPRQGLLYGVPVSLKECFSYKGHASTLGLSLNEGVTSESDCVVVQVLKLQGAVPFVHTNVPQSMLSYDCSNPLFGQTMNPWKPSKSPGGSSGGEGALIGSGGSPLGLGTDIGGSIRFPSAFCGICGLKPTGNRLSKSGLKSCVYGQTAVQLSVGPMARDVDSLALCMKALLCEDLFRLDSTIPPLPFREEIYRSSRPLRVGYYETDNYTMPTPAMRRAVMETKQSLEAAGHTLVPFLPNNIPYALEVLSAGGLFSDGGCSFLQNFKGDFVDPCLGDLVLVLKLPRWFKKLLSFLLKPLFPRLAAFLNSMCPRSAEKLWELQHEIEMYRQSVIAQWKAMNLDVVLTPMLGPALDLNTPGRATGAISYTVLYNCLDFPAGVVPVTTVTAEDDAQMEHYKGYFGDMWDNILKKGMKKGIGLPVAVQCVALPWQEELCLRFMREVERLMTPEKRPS

Row | Structure (SMILES) | inhibition at 1 µM [1] | inhibition at 1 µM [2] | pIC50 [1] | pIC50 [2]
1 | CC(=O)N(C)c1cnn(C(=O)N2CCN(Cc3ccc(C(F)(F)F)cc3N3C4CCC3COC4)CC2)c1 [Example 195, N-(1-(4-(2-(3-oxa-8-azabicyclo[3.2.1]octan-8-yl)-4-(trifluoromethyl)benzyl)piperazine-1-carbonyl)-1H-pyrazol-4-yl)-N-methylacetamide] | 0 to 25% | ≥ 75% | 5.00 to 6.00 | ≥ 7.00
2 | CC(=O)N(C)c1cnn(C(=O)N2CC3CN(Cc4ccccc4F)CC3C2)c1 (centres unmarked) [Example 182, N-(1-(5-(2-fluorobenzyl)octahydropyrrolo[3,4-c]pyrrole-2-carbonyl)-1H-pyrazol-4-yl)-N-methylacetamide] | ≥ 75% | ≥ 75% | ≥ 7.00 | 6.00 to 7.00
3 | CC(=O)N(C)c1cnn(C(=O)N2C[C@H]3C[C@H](N(C)Cc4cc(C(F)(F)F)ccc4C(F)(F)F)C[C@H]3C2)c1 [Example 146, N-(1-(trans-5-((2,5-bis(trifluoromethyl)benzyl)(methyl)amino)octahydrocyclopenta[c]pyrrole-2-carbonyl)-1H-pyrazol-4-yl)-N-methylacetamide] | ≥ 75% | ≥ 75% |  | 
4 | CC(=O)N(C)c1cnn(C(=O)N2CC3CN(Cc4ccc(N5CCCC5)cc4)CC3C2)c1 (centres unmarked) [Example 13, N-methyl-N-(1-(5-(4-(pyrrolidin-1-yl)benzyl)octahydropyrrolo[3,4-c]pyrrole-2-carbonyl)-1H-pyrazol-4-yl)acetamide] | ≥ 75% | ≥ 75% | 6.00 to 7.00 | 6.00 to 7.00
5 | CC(=O)N(C)c1cnn(C(=O)N2CC3CN(Cc4ccc(OCC(=O)N5CCCC5)cc4Cl)CC3C2)c1 (centres unmarked) [Example 189, N-(1-(5-(2-chloro-4-(2-oxo-2-(pyrrolidin-1-yl)ethoxy)benzyl)octahydropyrrolo[3,4-c]pyrrole-2-carbonyl)-1H-pyrazol-4-yl)-N-methylacetamide] | 0 to 25% | ≥ 75% | 6.00 to 7.00 | 5.00 to 6.00
6 | CC(=O)N(C)c1cnn(C(=O)N2CC3CN(Cc4cccc(Oc5ccccn5)c4)CC3C2)c1 (centres unmarked) [Example 238, N-methyl-N-(1-(5-(3-(pyridin-2-yloxy)benzyl)octahydropyrrolo[3,4-c]pyrrole-2-carbonyl)-1H-pyrazol-4-yl)acetamide] | ≥ 75% | ≥ 75% |  | 6.00 to 7.00
7 | CC(=O)N(C)c1cnn(C(=O)N2CCC3(CCN(Cc4ccccc4Cl)C3)CC2)c1 [Example 186, N-(1-(2-(2-chlorobenzyl)-2,8-diazaspiro[4.5]decane-8-carbonyl)-1H-pyrazol-4-yl)-N-methylacetamide] | ≥ 75% | ≥ 75% | 6.00 to 7.00 | ≥ 7.00
8 | CS(=O)(=O)Nc1cnn(C(=O)N2CCC3(CCN(Cc4cc(Cl)cc(C(F)(F)F)c4)C3)C2)c1 (centres unmarked) [Example 286, N-(1-(7-(3-chloro-5-(trifluoromethyl)benzyl)-2,7-diazaspiro[4.4]nonane-2-carbonyl)-1H-pyrazol-4-yl)methanesulfonamide] | ≥ 75% | 25 to 50% |  | 
9 | CC(=O)N(C)c1cnn(C(=O)N2CCC3(CC2)CN(Cc2ccc(N4CCOCC4)cc2Cl)C3)c1 [Example 28, N-(1-(2-(2-chloro-4-morpholinobenzyl)-2,7-diazaspiro[3.5]nonane-7-carbonyl)-1H-pyrazol-4-yl)-N-methylacetamide] | ≥ 75% | ≥ 75% |  | 
10 | CC(=O)Nc1cnn(C(=O)N2CC3CN(Cc4cc(Cl)cc(C(F)(F)F)c4)CC3C2)c1 (centres unmarked) [Example 315, N-(1-(5-(3-chloro-5-(trifluoromethyl)benzyl)octahydropyrrolo [3,4-c]pyrrole-2-carbonyl)-1H-pyrazol-4-yl)acetamide] | ≥ 75% | ≥ 75% |  | 
11 | CC(=O)N(C)c1cnn(C(=O)N2CCC3(CCN(Cc4cc(Cl)ccc4Cl)C3)C2)c1 (single isomer, unassigned) [Example 177, N-(1-(7-(2,5-dichlorobenzyl)-2,7-diazaspiro[4.4]nonane-2-carbonyl)-1H-pyrazol-4-yl)-N-methylacetamide] |  |  | ≥ 7.00 | ≥ 7.00
12 | CC(=O)N(C)c1cnn(C(=O)N2CC3CN(Cc4ccc(F)cc4)CC3C2)c1 (centres unmarked) [Example 178, N-(1-(5-(4-fluorobenzyl)octahydropyrrolo[3,4-c]pyrrole-2-carbonyl)-1H-pyrazol-4-yl)-N-methylacetamide] | ≥ 75% | 25 to 50% | 6.00 to 7.00 | 5.00 to 6.00
13 | CC(=O)N(C)c1cnn(C(=O)N2CC3CN(Cc4cccc(OCc5ccc(Cl)cc5)c4)CC3C2)c1 (centres unmarked) [Example 249, N-(1-(5-(3-((4-chlorobenzyl)oxy)benzyl)octahydropyrrolo[3,4-c]pyrrole-2-carbonyl)-1H-pyrazol-4-yl)-N-methylacetamide] | ≥ 75% | ≥ 75% |  | 
14 | CC(=O)N(C)c1cnn(C(=O)N2CC3CN(Cc4ccc(Oc5nc6ccccc6s5)cc4Cl)CC3C2)c1 (centres unmarked) [Example 252, N-(1-(5-(4-(benzo[d]thiazol-2-yloxy)-2-chlorobenzyl)octahydropyrrolo[3,4-c]pyrrole-2-carbonyl)-1H-pyrazol-4-yl)-N-methylacetamide] | ≥ 75% | ≥ 75% |  | 
15 | CC(=O)N(C)c1cnn(C(=O)N2CC3CN(Cc4ccc(N5CC6CCC(C5)O6)cc4C(F)(F)F)CC3C2)c1 (centres unmarked) [Example 101, N-(1-(5-(4-(8-oxa-3-azabicyclo[3.2.1]octan-3-yl)-2-(trifluoromethyl)benzyl)octahydropyrrolo[3,4-c]pyrrole-2-carbonyl)-1H-pyrazol-4-yl)-N-methylacetamide] | ≥ 75% | ≥ 75% |  | 
16 | CC(=O)N(C)c1cnn(C(=O)N2C[C@H]3C[C@H](N(C)Cc4cc(N5C6CCC5COC6)cc(C(F)(F)F)c4)C[C@H]3C2)c1 [Example 157, N-(1-(trans-5-((3-(3-oxa-8-azabicyclo[3.2.1]octan-8-yl)-5-(trifluoromethyl)benzyl)(methyl)amino)octahydrocyclopenta[c]pyrrole-2-carbonyl)-1H-pyrazol-4-yl)-N-methylacetamide] | ≥ 75% | ≥ 75% |  | 
17 | CC(=O)N(C)c1cnn(C(=O)N2CCC3(CC2)CN(Cc2ccc(-c4ccccc4)cc2C)C3)c1 [Example 226, N-methyl-N-(1-(2-((3-methyl-[1,1-biphenyl]-4-yl)methyl)-2,7-diazaspiro[3.5]nonane-7-carbonyl)-1H-pyrazol-4-yl)acetamide] | ≥ 75% | ≥ 75% | 6.00 to 7.00 | ≥ 7.00
18 | CC(=O)N(C)c1cnn(C(=O)N2CCC3(CCN(Cc4cccc(Cl)c4)C3)C2)c1 (centres unmarked) [Example 78, N-(1-(7-(3-chlorobenzyl)-2,7-diazaspiro[4.4]nonane-2-carbonyl)-1H-pyrazol-4-yl)-N-methylacetamide] | ≥ 75% | 50 to 75% | ≥ 7.00 | 5.00 to 6.00

The next lines start with the values.

Row | inhibition at 1 µM [1] | inhibition at 1 µM [2] | pIC50 [1] | pIC50 [2] | Structure (SMILES)
19 | ≥ 75% | ≥ 75% |  |  | CC(=O)N(C)c1cnn(C(=O)N2CCC3(CCN(Cc4cc(N5CCCC5)ccc4C(F)(F)F)C3)C2)c1 (centres unmarked) [Example 73, N-methyl-N-(1-(7-(5-(pyrrolidin-1-yl)-2-(trifluoromethyl)benzyl)-2,7-diazaspiro[4.4]nonane-2-carbonyl)-1H-pyrazol-4-yl)acetamide]
20 | ≥ 75% | ≥ 75% | 6.00 to 7.00 |  | CC(=O)N(C)c1cnn(C(=O)N2CCN(Cc3ccc(C(F)(F)F)cc3)CC2)c1 [Example 198, N-methyl-N-(1-(4-(4-(trifluoromethyl)benzyl)piperazine-1-carbonyl)-1H-pyrazol-4-yl)acetamide]
21 | ≥ 75% | 25 to 50% |  |  | CC(=O)N(C)c1cnn(C(=O)N2CCC3(CCN(Cc4cccc(N5CCCC5)c4)C3)C2)c1 (centres unmarked) [Example 82, N-methyl-N-(1-(7-(3-(pyrrolidin-1-yl)benzyl)-2,7-diazaspiro[4.4]nonane-2-carbonyl)-1H-pyrazol-4-yl)acetamide]
22 | 50 to 75% | ≥ 75% |  |  | CC(=O)N(C)c1cnn(C(=O)N2CCC3(CC2)CN(Cc2ccc(N4CCCC4)cc2)C3)c1 [Example 25, N-methyl-N-(1-(2-(4-(pyrrolidin-1-yl)benzyl)-2,7-diazaspiro[3.5]nonane-7-carbonyl)-1H-pyrazol-4-yl)acetamide]
23 | 50 to 75% | ≥ 75% | 5.00 to 6.00 | ≥ 7.00 | CC(=O)N(C)c1cnn(C(=O)N2CCN(Cc3cc(N4CCCC4)cc(C(F)(F)F)c3)CC2)c1 [Example 190, N-methyl-N-(1-(4-(3-(pyrrolidin-1-yl)-5-(trifluoromethyl)benzyl)piperazine-1-carbonyl)-1H-pyrazol-4-yl)acetamide]
24 | ≥ 75% | ≥ 75% |  |  | CC(=O)N(C)c1cnn(C(=O)N2C[C@H]3C[C@@H](N(C)Cc4ccc(N5CCCC5)cc4C(F)(F)F)C[C@H]3C2)c1 [Example 152, N-methyl-N-(1-(cis-5-(methyl(4-(pyrrolidin-1-yl)-2-(trifluoromethyl)benzyl)amino)octahydrocyclopenta[c]pyrrole-2-carbonyl)-1H-pyrazol-4-yl)acetamide]
25 | ≥ 75% | 50 to 75% |  |  | CC(=O)N(C)c1cnn(C(=O)N2CC3(CCN(Cc4cccc(C(F)(F)F)c4)CC3)C2)c1 [Example 88, N-methyl-N-(1-(7-(3-(trifluoromethyl)benzyl)-2,7-diazaspiro[3.5]nonane-2-carbonyl)-1H-pyrazol-4-yl)acetamide]
26 | 25 to 50% | ≥ 75% | 5.00 to 6.00 | 6.00 to 7.00 | CN(c1cnn(C(=O)N2CCN(Cc3ccc(C(F)(F)F)cc3N3CCCC3)CC2)c1)S(C)(=O)=O [Example 218, N-methyl-N-(1-(4-(2-(pyrrolidin-1-yl)-4-(trifluoromethyl)benzyl)piperazine-1-carbonyl)-1H-pyrazol-4-yl)methanesulfonamide]
